# Reference: ChEMBL document CHEMBL5131568, “Discovery of an Oral, Rule of 5 Compliant, Interleukin 17A Protein-Protein Interaction Modulator for the Potential Treatment of Psoriasis and Other Inflammatory Diseases” (J Med Chem, 2022)
# How the values were obtained:
# [1] = Metabolic stability in human liver microsomes assessed as apparent clearance at 0.5 uM measured upto 40 mins in presence of NADPH by LCMS/MS analysis; assay type: ADME, Microsome; details: read-out: CLH
# [2] = Inhibition of IL-8 release in non-glycosylated IL-17A/TNFalpha-stimulated human HEKa incubated for 72 hrs under serum free medium by AlphaLISA; assay type: functional, cell-based
# [3] = Inhibition of IL-8 release in glycosylated IL-17A/TNFalpha-stimulated human HEKa incubated for 72 hrs under serum free medium by AlphaLISA; assay type: functional, cell-based
# [4] = Oral bioavailability in Sprague-Dawley rat at 2.6 mg/kg measured upto 24 hrs by LCMS/MS analysis; assay type: ADME, organism-based; details: in vivo
# [5] = Solubility in phosphate buffer at pH 2 measured after 24 hrs by HPLC-UV analysis; assay type: physicochemical
# [6] = Solubility in phosphate buffer at pH 7.4 measured after 24 hrs by HPLC-UV analysis; assay type: physicochemical
# [7] = Clearance in Sprague-Dawley rat at 0.1 mg/kg, iv measured upto 24 hrs by LCMS/MS analysis; assay type: ADME, organism-based; details: in vivo
# [8] = Protein binding in human plasma assessed as unbound fraction at 1 uM by LCMS/MS analysis; assay type: ADME, cell-free
# [9] = Solubility in phosphate buffer at pH 6.5 measured after 24 hrs by HPLC-UV analysis; assay type: physicochemical
# [10] = Volume of distribution at steady state in Sprague-Dawley rat at 0.1 mg/kg, iv measured upto 24 hrs by LCMS/MS analysis; assay type: ADME, organism-based; details: in vivo, read-out: Vdss
# [11] = Apparent permeability of compound in human Caco2 cells from basal to apical; assay type: ADME, cell-based; details: Caco-2
# [12] = Half life in Sprague-Dawley rat at 0.1 mg/kg, iv measured upto 24 hrs by LCMS/MS analysis; assay type: ADME, organism-based; details: in vivo
# [13] = Apparent permeability of compound in human Caco2 cells from apical to basal; assay type: ADME, cell-based; details: Caco-2
# [14] = Inhibition of IL-8 release in non-glycosylated IL-17A/TNFalpha-stimulated human HEKa cells at 0.6 uM incubated for 72 hrs under serum free medium by AlphaLISA; assay type: functional
# [15] = target: Voltage-gated inwardly rectifying potassium channel KCNH2 (Homo sapiens, UniProt Q12809); assay: Inhibition of human ERG; assay type: toxicity
# Interleukin-17A = target: T1, Interleukin-17A (Homo sapiens, UniProt Q16552); assay: Binding affinity to human IL-17A assessed as thermal stability by measuring increase in unfolding temperature by differential scanning fluorimetry
# T1 sequence (Q16552 whole entry): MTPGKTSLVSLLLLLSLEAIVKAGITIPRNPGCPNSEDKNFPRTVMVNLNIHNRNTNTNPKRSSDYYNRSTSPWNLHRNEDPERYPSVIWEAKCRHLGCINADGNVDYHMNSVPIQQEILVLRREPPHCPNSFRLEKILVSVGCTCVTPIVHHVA
# [16] = Inhibition of IL-8 release in non-glycosylated IL-17A/TNFalpha-stimulated human HEKa cells at 6 uM incubated for 72 hrs under serum free medium by AlphaLISA; assay type: functional
# [17] = Inhibition of IL-8 release in glycosylated IL-17A/TNFalpha-stimulated human HEKa cells at 10 uM incubated for 72 hrs under serum free medium by AlphaLISA; assay type: functional
# Chain of Voltage-gated inwardly rectifying potassium channel KCNH2 (Q12809 whole entry): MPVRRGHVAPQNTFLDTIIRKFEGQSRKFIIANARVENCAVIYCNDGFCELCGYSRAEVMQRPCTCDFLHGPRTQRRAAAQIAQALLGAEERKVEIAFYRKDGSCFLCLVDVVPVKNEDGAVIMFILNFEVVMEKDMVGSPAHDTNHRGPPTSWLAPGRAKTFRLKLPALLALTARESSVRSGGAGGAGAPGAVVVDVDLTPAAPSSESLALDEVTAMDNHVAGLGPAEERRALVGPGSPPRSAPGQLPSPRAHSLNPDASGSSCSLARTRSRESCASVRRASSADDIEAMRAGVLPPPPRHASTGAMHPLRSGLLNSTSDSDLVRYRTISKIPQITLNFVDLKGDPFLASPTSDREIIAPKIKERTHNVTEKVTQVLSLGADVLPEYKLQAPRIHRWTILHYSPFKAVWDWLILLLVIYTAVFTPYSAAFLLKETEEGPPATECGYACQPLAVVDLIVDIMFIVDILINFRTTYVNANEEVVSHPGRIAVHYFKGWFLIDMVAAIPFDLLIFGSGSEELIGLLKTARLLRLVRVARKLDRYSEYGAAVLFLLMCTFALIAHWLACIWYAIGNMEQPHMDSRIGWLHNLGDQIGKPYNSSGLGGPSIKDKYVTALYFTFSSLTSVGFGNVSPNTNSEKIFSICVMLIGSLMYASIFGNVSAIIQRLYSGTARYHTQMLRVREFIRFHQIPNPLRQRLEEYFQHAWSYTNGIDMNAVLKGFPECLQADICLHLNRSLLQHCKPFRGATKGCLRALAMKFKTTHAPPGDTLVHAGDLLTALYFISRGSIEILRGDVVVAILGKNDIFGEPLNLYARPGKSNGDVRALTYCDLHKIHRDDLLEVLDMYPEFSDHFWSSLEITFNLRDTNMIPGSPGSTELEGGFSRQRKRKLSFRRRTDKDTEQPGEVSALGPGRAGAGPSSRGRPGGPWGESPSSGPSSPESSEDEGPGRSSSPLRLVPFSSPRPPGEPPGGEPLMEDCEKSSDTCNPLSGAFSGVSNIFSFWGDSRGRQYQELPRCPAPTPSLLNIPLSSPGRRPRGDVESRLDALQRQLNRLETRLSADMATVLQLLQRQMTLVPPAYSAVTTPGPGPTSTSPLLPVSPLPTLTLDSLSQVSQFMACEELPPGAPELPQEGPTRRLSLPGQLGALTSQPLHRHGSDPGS
CLint scaled at 0.5 µM [1] [mL/min/kg],EC50 [2] [nM],SMILES,other results
> 200,151,O=C1CNC(=O)[C@@H](Cc2ccc(NC(=O)[C@H](Cc3ccccc3Cl)NC(=O)Cc3ccccc3)cc2)NC(=O)CC2(CCCC2)CC(=O)NCCCCCN1,EC50 [3]: 1920 nM
21,–,Cn1cncc1-c1ccc(NC(=O)[C@@H](NC(=O)c2ccnn2C)C(c2ccccc2)c2ccccc2)cc1,EC50 [3]: 947 nM
57,935,Cc1n[nH]c(C)c1-c1ccc(NC(=O)[C@H](CC2CCCCC2)NC(=O)c2ccnn2C)cc1,–
< 8,53,Cc1n[nH]c(C)c1-c1ccc(NC(=O)[C@@H](NC(=O)c2ccnn2C)C(C2CC2)C2CC2)cc1,–
24,1100,Cc1n[nH]c(C)c1-c1ccc(NC(=O)[C@H](Cc2ccccc2Cl)NC(=O)c2ccnn2C)cc1,–
< 8,50,Cc1n[nH]c(C)c1-c1ccc(NC(=O)[C@@H](NC(=O)c2ccnn2C)[C@H]2CC[C@H](C)CC2)cc1,–
< 8,–,Cc1n[nH]c(C)c1-c1ccc(NC(=O)[C@@H](NC(=O)c2ccnn2C)C(c2ccccc2)c2ccccc2)cc1,bioavailability [4]: 26%; solubility at 24 h [5]: 25 µg/mL; solubility at 24 h [6]: < 1 µg/mL; clearance [7]: 7 mL/min/kg; fraction unbound at 1 µM [8]: 0.0011; solubility at 24 h [9]: < 1 µg/mL; Vd [10]: 2 L/kg; Papp B→A [11]: 21 ×10⁻⁶ cm/s; half-life [12]: 3.2 h; EC50 [3]: 117 nM; Papp A→B [13]: 16 ×10⁻⁶ cm/s
< 8,–,Cc1n[nH]c(C)c1-c1ccc(NC(=O)[C@@H](NC(=O)c2ccnn2C)c2ccccc2)cc1,inhibition at 0.6 µM [14]: 28%
44,5.5,CCn1nccc1C(=O)N[C@H](C(=O)Nc1ccc(-c2c(C)n[nH]c2C)cc1)C(C1CCC1)C1CCC1,–
< 8,208,Cc1n[nH]c(C)c1-c1ccc(NC(=O)[C@@H](NC(=O)c2ccnn2C)C2CCCCC2)cc1,–
33,575,CC(C)[C@H](NC(=O)COCCNC(=O)OC(C)(C)C)C(=O)N[C@@H](CC(=O)O)Cc1ccc(NC(=O)[C@H](Cc2ccccc2Cl)NC(=O)C(F)(F)c2ccccc2)cc1,–
< 8,–,Cc1[nH]ncc1-c1ccc(NC(=O)[C@@H](NC(=O)c2ccnn2C)C(c2ccccc2)c2ccccc2)cc1,EC50 [3]: 385 nM
< 8,26,CCn1nccc1C(=O)N[C@H](C(=O)Nc1ccc(-c2c(C)n[nH]c2C)cc1)C(C1CC1)C1CC1,–
< 8,–,Cn1nccc1C(=O)N[C@H](C(=O)Nc1ccc(-c2cn[nH]c2)cc1)C(c1ccccc1)c1ccccc1,EC50 [3]: 3380 nM
< 8,15,Cc1n[nH]c(C)c1-c1ccc(NC(=O)[C@@H](NC(=O)c2ccnn2C(C)C)C(C2CC2)C2CC2)cc1,bioavailability [4]: 100%; solubility at 24 h [5]: 40 µg/mL; solubility at 24 h [6]: < 1 µg/mL; clearance [7]: 7.4 mL/min/kg; fraction unbound at 1 µM [8]: 0.017; IC50 [15]: > 30000 nM; solubility at 24 h [9]: < 1 µg/mL; Vd [10]: 2.6 L/kg; Papp B→A [11]: 26 ×10⁻⁶ cm/s; half-life [12]: 3.7 h; Kd (Interleukin-17A): 32 nM; Papp A→B [13]: 38 ×10⁻⁶ cm/s
12,–,Cc1n[nH]c(C)c1-c1ccc(NC(=O)[C@H](Cc2ccccc2)NC(=O)c2ccnn2C)cc1,inhibition at 6 µM [16]: 37%
< 8,–,Cn1cnnc1-c1ccc(NC(=O)[C@@H](NC(=O)c2ccnn2C)C(c2ccccc2)c2ccccc2)cc1,inhibition at 10 µM [17]: 47%
9,10,Cc1n[nH]c(C)c1-c1ccc(NC(=O)[C@@H](NC(=O)c2ccnn2C)C(C2CCC2)C2CCC2)cc1,–
105,36,Cc1n[nH]c(C)c1-c1ccc(NC(=O)[C@@H](NC(=O)c2ccnn2C)C2CCCCCC2)cc1,–
< 8,5610,CN(C)C(=O)c1ccc(NC(=O)[C@@H](NC(=O)c2ccnn2C)C(c2ccccc2)c2ccccc2)cc1,inhibition at 10 µM [17]: 52%
< 8,296,Cc1n[nH]c(C)c1-c1ccc(NC(=O)C(NC(=O)c2ccnn2C)C2CCC3(CC2)CC3)cc1 (stereo not given),–
52,4.5,Cc1n[nH]c(C)c1-c1ccc(NC(=O)[C@@H](NC(=O)c2ccnn2C(C)C)C(C2CCC2)C2CCC2)cc1,–
94,–,Cc1ncn(C)c1-c1ccc(NC(=O)[C@@H](NC(=O)c2ccnn2C)C(c2ccccc2)c2ccccc2)cc1,EC50 [3]: 304 nM
